Results as given in patent US7202213B2 (Novo Nordisk A/S, priority 2000, dated 2007).

Assays:
human PPAR α = biological target: T1, human PPAR α (Homo sapiens, UniProt Q07869); test: In vitro PPAR alpha transactivation assay (GAL4-DBD-PPAR-LBD luciferase reporter in HEK293 cells); type: cell-based; settings: for EC50: HEK293 cells, 24 h with compound, five concentrations 0.01 to 30 μM, means of at least three experiments, read-out: In vitro activation PPAR α EC50; for In vitro activation PPAR α % max: fold activation relative to maximum activation obtained with Wy14643 (approx. 20 fold corresponded to 100%)
T1 construct: PPARα: aa 167-C-terminus; PPARγ: aa 165-C-terminus; expressed in transfected cells; host or cells: HEK293
T1 sequence (Q07869 167-468 limits assumed): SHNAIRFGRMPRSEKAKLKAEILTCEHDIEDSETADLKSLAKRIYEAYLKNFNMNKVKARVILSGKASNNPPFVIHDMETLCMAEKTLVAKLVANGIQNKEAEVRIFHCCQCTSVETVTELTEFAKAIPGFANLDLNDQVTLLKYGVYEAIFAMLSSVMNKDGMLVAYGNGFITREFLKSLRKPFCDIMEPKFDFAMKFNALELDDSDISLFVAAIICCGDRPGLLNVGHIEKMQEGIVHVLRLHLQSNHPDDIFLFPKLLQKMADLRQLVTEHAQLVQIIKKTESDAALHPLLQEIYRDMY
From the text: (§1) The PPAR gene transcription activation assays were based on transient transfection into human HEK293 cells of two plasmids encoding a chimeric test protein and a reporter protein respectively. The chimeric test protein was a fusion of the DNA binding domain (DBD) from the yeast GAL4 transcription factor to the ligand binding domain (LBD) of the human PPAR proteins. The PPAR LBD harbored in addition to the ligand binding pocket also the native activation domain (activating function 2=AF2) allowing the fusion protein to function as a PPAR ligand dependent transcription factor. The GAL4 DBD will force the fusion protein to bind only to Gal4 enhancers (of which none existed in HEK293 cells). The reporter plasmid contained a Gal4 enhancer driving the expression of the firefly luciferase protein. After transfection, HEK293 cells expressed the GAL4-DBD-PPAR-LBD fusion protein. The fusion protein will in turn bind to the Gal4 enhancer controlling the luciferase expression, and do nothing in the absence of ligand. Upon addition to the cells of a PPAR ligand, luciferase protein will be produced in amounts corresponding to the activation of the PPAR protein. The amount of luciferase protein is measured by light emission after addition of the appropriate substrate.
(§2) Cell culture and transfection: HEK293 cells were grown in DMEM+10% FCS. Cells were seeded in 96-well plates the day before transfection to give a confluency of 50–80% at transfection. A total of 0,8 μg DNA containing 0,64 μg pM1α/γLBD, 0,1 μg pCMVβGal, 0,08 μg pGL2Gal4DBD and 0,02 μg p[…] was transfected per well using FuGene transfection reagent according to the manufacturers instructions (Roche). Cells were allowed to express protein for 48 h followed by addition of compound.
(§3) Plasmids: Human PPAR α and γ was obtained by PCR amplification using cDNA synthesized by reverse transcription of mRNA from liver and adipose tissue respectively. Amplified cDNAs were cloned into pCR2.1 and sequenced. The ligand binding domain (LBD) of each PPAR isoform was generated by PCR(PPARα: aa 167-C-terminus; PPARγ: aa 165-C-terminus) and fused to the DNA binding domain (DBD) of the yeast transcription factor GAL4 by subcloning fragments in frame into the vector pM1 generating the plasmids pM1αLBD and pM1γLBD. Ensuing fusions were verified by sequencing.
(§4) Luciferase assay: Medium including test compound was aspirated and 100 μl PBS incl. 1 mM Mg++ and Ca++ was added to each well. The luciferase assay was performed using the LucLite kit according to the manufacturers instructions (Packard Instruments). Light emission was quantified by counting SPC mode on a Packard Instruments top-counter. To measure β-galactosidase activity 25 μl supernatant from each transfection lysate was transferred to a new microplate. β-galactosidase assays were performed in the microwell plates using a kit from Promega and read in a microplate reader. The β-galactosidase data were used to normalize (transfection efficiency, cell growth etc.) the luciferase data.
(§5) Compounds: All compounds were dissolved in DMSO and diluted 1:1000 upon addition to the cells. Compounds were tested in quadruple in five concentrations ranging form 0.01 to 30 μM. Cells were treated with compound for 24 h followed by luciferase assay. Each compound was tested in three separate experiments. EC50 values were calculated via non-linear regression using GraphPad PRISM 3.02 (GraphPad Software, San Diego, Calif.). The results were expressed as means.
(§6) Compounds were tested in at least three separate experiments in five concentrations ranging from 0.01 to 30 μM.

human PPAR γ = biological target: T2, human PPAR γ (Homo sapiens, UniProt P37231); test: In vitro PPAR gamma transactivation assay (GAL4-DBD-PPAR-LBD luciferase reporter in HEK293 cells); type: cell-based; settings: for EC50: HEK293 cells, 24 h with compound, five concentrations 0.01 to 30 μM, means of at least three experiments, read-out: In vitro activation PPAR γ EC50; for In vitro activation PPAR γ % max: fold activation relative to maximum activation obtained with rosiglitazone (approx. […] fold corresponded to 100%)
T2 construct: PPARα: aa 167-C-terminus; PPARγ: aa 165-C-terminus; expressed in transfected cells; host or cells: HEK293
T2 sequence (P37231 165-477 isoform P37231-2): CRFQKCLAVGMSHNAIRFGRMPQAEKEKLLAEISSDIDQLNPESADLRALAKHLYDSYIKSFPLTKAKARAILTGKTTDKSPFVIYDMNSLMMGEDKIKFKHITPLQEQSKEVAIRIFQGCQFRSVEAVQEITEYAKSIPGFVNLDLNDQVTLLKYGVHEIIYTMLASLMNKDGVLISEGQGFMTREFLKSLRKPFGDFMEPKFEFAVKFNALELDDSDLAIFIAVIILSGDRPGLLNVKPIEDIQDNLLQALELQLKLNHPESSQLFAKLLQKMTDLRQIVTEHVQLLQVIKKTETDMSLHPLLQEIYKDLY
From the text: as §1, §2, §3, §4, §5, §6

CCOC(Cc1ccc(OCC=C(C)C#Cc2cccc3ccccc23)cc1)C(=O)O (stereo in doubt) [Example 18, (Z)-(S)-2-ethoxy-3-[4-(3-methyl-5-(1-naphthyl)-pent-2-en-4-ynyloxy)-phenyl]-propionic acid]
EC50 (human PPAR α): 160 nM | In vitro activation PPAR α % max (human PPAR α): 181% | EC50 (human PPAR γ): 2670 nM | In vitro activation PPAR γ % max (human PPAR γ): 91%

CCO[C@@H](Cc1ccc(OC/C=C(\C)C#Cc2cc(Cl)cc(Cl)c2)cc1)C(=O)O [Example 8, (E)-(S)-2-ethoxy-3-[4-(3-methyl-5-(3,5-dichloro-phenyl)-pent-2-en-4-ynyloxy)-phenyl]-propionic acid]
EC50 (human PPAR α): 60 nM | In vitro activation PPAR α % max (human PPAR α): 139% | EC50 (human PPAR γ): 310 nM | In vitro activation PPAR γ % max (human PPAR γ): 126%

CCO[C@@H](Cc1ccc(OC/C=C(\C)C#Cc2cccc(C(F)(F)F)c2)cc1)C(=O)O [Example 12, (E)-(S)-2-ethoxy-3-[4-(3-methyl-5-(3-trifluoromethyl-phenyl)-pent-2-en-4-ynyloxy)-phenyl]-propionic acid]
EC50 (human PPAR α): 50 nM | In vitro activation PPAR α % max (human PPAR α): 195% | EC50 (human PPAR γ): 340 nM | In vitro activation PPAR γ % max (human PPAR γ): 105%

CCO[C@@H](Cc1ccc(OC/C=C/C#Cc2cc(Cl)cc(Cl)c2)cc1)C(=O)O [Example 20, (E)-(S)-2-Ethoxy-3-[4-(5-(3,5-dichloro-phenyl)-pent-2-en-4-ynyloxy)-phenyl]-propionic acid]
EC50 (human PPAR α): 40 nM | In vitro activation PPAR α % max (human PPAR α): 154% | EC50 (human PPAR γ): 1420 nM | In vitro activation PPAR γ % max (human PPAR γ): 112%

Cc1cccc(Nc2cc(Cl)nc(SCC(=O)O)n2)c1C [Wy14643, reference compound]
Maximum activation PPAR α (fold activation) (human PPAR α; reference maximum, corresponded to 100%): approx. 20 fold
